According to patent publication US20210038607A1, “OXADIAZOLYLTHIOPHENE DERIVATIVES USEFUL AS HISTONE DEACETYLASE INHIBITORS” (Karus Therapeutics Limited, priority 2018, published 2021):

How the values were obtained:
Human HDAC1 = target: T1, Human HDAC1 (Homo sapiens, UniProt Q13547); test: HDAC1 biochemical assay, AMC-labeled peptide substrate; settings: read-out: HDAC Isoform IC50 (nM) 1
T1 construct: full length with C-terminal His-tag and C-terminal FLAG-tag; His (C); FLAG (C); host or cells: baculovirus expression system
Method in brief: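 Two-step fluorogenic read: HDAC1 deacetylates 50 μM acetyl-lysine AMC peptide RHKK(Ac)AMC for 1 h at 30° C (pH 8.0, 1% DMSO, with compound), then developer digests the product for fluorescence at Ex/Em 360/460. Enzyme is full-length human, His/FLAG-tagged, insect-cell expressed, at 0.3 ng/ul.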

Recombinant human HDAC6 = target: T2, Recombinant human HDAC6 (Homo sapiens, UniProt Q9UBN7); test: HDAC6 biochemical assay, AMC-labeled peptide substrate; settings: HDAC6; read-out: HDAC Isoform IC50 (nM) 6
T2 construct: full length, MW=159 kDa; GST (N); host or cells: Sf9 insect cells (baculovirus)
T2 sequence (Q9UBN7 1-1215): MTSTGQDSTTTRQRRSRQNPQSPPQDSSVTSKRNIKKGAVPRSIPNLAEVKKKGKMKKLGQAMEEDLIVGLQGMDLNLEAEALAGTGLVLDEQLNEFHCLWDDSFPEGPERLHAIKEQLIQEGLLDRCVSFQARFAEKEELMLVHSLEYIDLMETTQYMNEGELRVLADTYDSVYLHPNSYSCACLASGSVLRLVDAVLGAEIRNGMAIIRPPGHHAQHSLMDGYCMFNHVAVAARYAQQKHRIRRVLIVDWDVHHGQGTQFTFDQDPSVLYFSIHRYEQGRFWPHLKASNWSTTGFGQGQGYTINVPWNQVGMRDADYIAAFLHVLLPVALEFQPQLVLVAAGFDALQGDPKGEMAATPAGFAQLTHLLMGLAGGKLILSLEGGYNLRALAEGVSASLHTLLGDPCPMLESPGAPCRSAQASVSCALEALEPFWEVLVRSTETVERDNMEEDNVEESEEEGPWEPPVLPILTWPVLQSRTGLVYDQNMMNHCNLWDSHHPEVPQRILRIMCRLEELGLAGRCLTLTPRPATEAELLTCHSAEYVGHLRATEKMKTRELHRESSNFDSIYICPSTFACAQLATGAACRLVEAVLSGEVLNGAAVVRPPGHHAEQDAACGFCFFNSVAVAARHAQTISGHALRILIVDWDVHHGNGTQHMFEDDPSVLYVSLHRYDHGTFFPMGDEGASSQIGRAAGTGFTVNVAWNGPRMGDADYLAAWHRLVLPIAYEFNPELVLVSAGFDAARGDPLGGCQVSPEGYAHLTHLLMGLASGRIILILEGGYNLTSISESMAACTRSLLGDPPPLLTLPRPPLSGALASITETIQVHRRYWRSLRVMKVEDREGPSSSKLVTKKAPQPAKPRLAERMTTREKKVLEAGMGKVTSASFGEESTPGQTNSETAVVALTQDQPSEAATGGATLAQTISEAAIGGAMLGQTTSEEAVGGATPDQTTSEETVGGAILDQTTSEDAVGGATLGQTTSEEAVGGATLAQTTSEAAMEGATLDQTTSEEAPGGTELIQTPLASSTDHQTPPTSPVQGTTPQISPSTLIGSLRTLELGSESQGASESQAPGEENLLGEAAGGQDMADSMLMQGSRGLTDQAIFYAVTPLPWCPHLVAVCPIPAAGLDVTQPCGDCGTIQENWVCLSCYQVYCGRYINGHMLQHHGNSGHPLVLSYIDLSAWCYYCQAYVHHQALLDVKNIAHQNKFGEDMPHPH
Method in brief: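 Two-step fluorogenic read-out: enzyme deacetylates 50 μM RHKK(Ac)AMC for 1 h at 30° C in pH 8.0 Tris buffer with BSA and 1% DMSO, then developer cleavage gives signal at Ex 360/Em 460. Enzyme: 0.3 ng/ul recombinant full-length human HDAC6, GST-tagged, Sf9-expressed.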

Human HDAC7 = target: T3, Human HDAC7 (Homo sapiens, UniProt Q8WUI4); test: HDAC7 biochemical assay, class IIa-specific substrate; settings: read-out: HDAC Isoform IC50 (nM) 7
T3 construct: (a.a. 518-end) with N-terminal GST tag; GST (N); host or cells: baculovirus expression system
T3 sequence (Q8WUI4 518-952 limits assumed): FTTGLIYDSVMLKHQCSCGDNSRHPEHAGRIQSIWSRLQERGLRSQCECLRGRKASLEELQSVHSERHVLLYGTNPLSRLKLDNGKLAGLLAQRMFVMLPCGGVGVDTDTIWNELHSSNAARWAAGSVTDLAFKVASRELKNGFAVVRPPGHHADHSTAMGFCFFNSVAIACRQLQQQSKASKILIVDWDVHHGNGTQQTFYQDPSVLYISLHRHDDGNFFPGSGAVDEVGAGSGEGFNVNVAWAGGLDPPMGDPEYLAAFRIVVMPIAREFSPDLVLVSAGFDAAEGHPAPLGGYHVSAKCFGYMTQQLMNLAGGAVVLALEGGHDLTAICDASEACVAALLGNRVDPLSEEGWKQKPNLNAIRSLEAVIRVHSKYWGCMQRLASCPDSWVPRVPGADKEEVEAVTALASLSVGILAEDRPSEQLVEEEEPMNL
Method in brief: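 Two-step fluorogenic readout: class IIa-selective trifluoroacetyl-lysine AMC substrate (50 μM) deacetylated by N-terminal GST-HDAC7 fragment (0.001 ng/ul), then digested by developer, Ex/Em 360/460. Reaction: 30 min, room temperature, Tris-HCl pH 8.0, NaCl/KCl/MgCl2, 1 mg/mL BSA, 1% DMSO.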

T1 sequence (Q13547 whole entry, canonical isoform): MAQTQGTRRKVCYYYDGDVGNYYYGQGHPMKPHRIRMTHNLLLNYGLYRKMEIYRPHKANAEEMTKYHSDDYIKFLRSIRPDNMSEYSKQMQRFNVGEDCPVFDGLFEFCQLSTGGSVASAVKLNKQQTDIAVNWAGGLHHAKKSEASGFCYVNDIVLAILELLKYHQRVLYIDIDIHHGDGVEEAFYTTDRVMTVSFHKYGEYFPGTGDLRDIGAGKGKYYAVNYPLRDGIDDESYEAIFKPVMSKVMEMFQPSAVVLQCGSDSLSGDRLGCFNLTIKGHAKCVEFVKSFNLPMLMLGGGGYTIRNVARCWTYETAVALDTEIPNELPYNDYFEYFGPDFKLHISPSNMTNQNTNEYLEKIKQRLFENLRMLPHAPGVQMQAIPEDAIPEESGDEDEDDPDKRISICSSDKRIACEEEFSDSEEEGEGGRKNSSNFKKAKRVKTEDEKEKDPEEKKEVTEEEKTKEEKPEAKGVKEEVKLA

SMILES	IC50 (Human HDAC1) [nM]	IC50 (Recombinant human HDAC6) [nM]	IC50 (Human HDAC7) [nM]
FC(F)(F)c1nc(-c2ccc(CN(c3cnccn3)c3ncccn3)s2)no1 [Example AS, N-(Pyrimidin-2-yl)-N-({5-[5-(trifluoromethyl)-1,2,4-oxadiazol-3-yl]thiophen-2-yl}methyl)pyrazin-2-amine]	> 10000	≤ 1000	≤ 10000
FC(F)(F)c1cnnc(N(Cc2ccc(-c3noc(C(F)(F)F)n3)s2)c2cc(C(F)(F)F)cnn2)c1 [Example EU, 5-(Trifluoromethyl)-N-({5-[5-(trifluoromethyl)-1,2,4-oxadiazol-3-yl]thiophen-2-yl}methyl)-N-[5-(trifluoromethyl)pyridazin-3-yl]pyridazin-3-amine]	> 10000	≤ 500	≤ 10000
[O-][S+]1CCN(Cc2ccc(N(Cc3ccc(-c4noc(C(F)(F)F)n4)s3)c3cnccn3)nn2)CC1 [Example FO, 4-({6-[(Pyrazin-2-yl)({5-[5-(trifluoromethyl)-1,2,4-oxadiazol-3-yl]thiophen-2-yl}methyl)amino]pyridazin-3-yl}methyl)-1lambda4-thiomorpholin-1-one]	> 10000	≤ 500	≤ 1000
FC(F)(F)c1cnnc(N(Cc2ccc(-c3noc(C(F)(F)F)n3)s2)c2cnccn2)c1 [Example EF, N-(Pyrazin-2-yl)-5-(trifluoromethyl)-N-({5-[5-(trifluoromethyl)-1,2,4-oxadiazol-3-yl]thiophen-2-yl}methyl)pyridazin-3-amine]	> 10000	≤ 500	≤ 10000
O=C(c1nccnc1N(Cc1ccc(-c2noc(C(F)(F)F)n2)s1)c1cnccn1)N1CC(O)(C(F)(F)F)C1 [Example GQ, 1-{3-[(Pyrazin-2-yl)({5-[5-(trifluoromethyl)-1,2,4-oxadiazol-3-yl]thiophen-2-yl}methyl)amino]pyrazine-2-carbonyl}-3-(trifluoromethyl)azetidin-3-ol]	> 10000	≤ 1000	≤ 10000
CN(C)C1CN(C(=O)c2cnnc(N(Cc3ccc(-c4noc(C(F)(F)F)n4)s3)c3cnccn3)c2)C1 [Example FX, 5-[3-(Dimethylamino)azetidine-1-carbonyl]-N-(pyrazin-2-yl)-N-({5-[5-(trifluoromethyl)-1,2,4-oxadiazol-3-yl]thiophen-2-yl}methyl)pyridazin-3-amine]	> 10000	≤ 500	≤ 1000
O=C(c1cnnc(N(Cc2ccc(-c3noc(C(F)(F)F)n3)s2)c2cnccn2)c1)N1CC(C(F)(F)F)C1 [Example GJ, N-(Pyrazin-2-yl)-N-({5-[5-(trifluoromethyl)-1,2,4-oxadiazol-3-yl]thiophen-2-yl}methyl)-5-[3-(trifluoromethyl)azetidine-1-carbonyl]pyridazin-3-amine]	> 10000	≤ 500	≤ 1000
FC(F)(F)c1nc(-c2ccc(CN(c3cnccn3)c3cnccn3)s2)no1 [Example BA, N-(Pyrazin-2-yl)-N-({5-[5-(trifluoromethyl)-1,2,4-oxadiazol-3-yl]thiophen-2-yl}methyl)pyrazin-2-amine]	> 10000	≤ 500	≤ 1000
FC(F)(F)c1nc(-c2ccc(CN(c3cnccn3)c3cc(CN4CCCC4)ccn3)s2)no1 [Example GG, N-{4-[(Pyrrolidin-1-yl)methyl]pyridin-2-yl}-N-({5-[5-(trifluoromethyl)-1,2,4-oxadiazol-3-yl]thiophen-2-yl}methyl)pyrazin-2-amine]	> 10000	≤ 1000	≤ 1000
FC(F)(F)c1nc(-c2ccc(CN(c3ccccn3)c3ccccn3)s2)no1 [Example U, N-(Pyridin-2-yl)-N-({5-[5-(trifluoromethyl)-1,2,4-oxadiazol-3-yl]thiophen-2-yl}methyl)pyridin-2-amine]	> 10000	≤ 1000	≤ 10000
O=C(c1cnnc(N(Cc2ccc(-c3noc(C(F)(F)F)n3)s2)c2cnccn2)c1)N1C2CCC1COC2 [Example GB, 5-{3-Oxa-8-azabicyclo[3.2.1]octane-8-carbonyl}-N-(pyrazin-2-yl)-N-({5-[5-(trifluoromethyl)-1,2,4-oxadiazol-3-yl]thiophen-2-yl}methyl)pyridazin-3-amine]	> 10000	≤ 500	≤ 10000
FC(F)(F)c1nc(-c2ccc(CN(c3cnccn3)c3cc(CN4CCOCC4)ccn3)s2)no1 [Example GI, N-{4-[(Morpholin-4-yl)methyl]pyridin-2-yl}-N-({5-[5-(trifluoromethyl)-1,2,4-oxadiazol-3-yl]thiophen-2-yl}methyl)pyrazin-2-amine]	> 10000	≤ 1000	≤ 10000

Other lines, results leading:

IC50 (Human HDAC1) [nM]	IC50 (Recombinant human HDAC6) [nM]	IC50 (Human HDAC7) [nM]	SMILES
> 10000	≤ 500	≤ 10000	O=C(c1cnnc(N(Cc2ccc(-c3noc(C(F)(F)F)n3)s2)c2cnccn2)c1)N1CCC12COC2 [Example GF, 5-{6-Oxa-1-azaspiro[3.3]heptane-1-carbonyl}-N-(pyrazin-2-yl)-N-({5-[5-(trifluoromethyl)-1,2,4-oxadiazol-3-yl]thiophen-2-yl}methyl)pyridazin-3-amine]
≤ 10000	≤ 500	≤ 500	O=C(c1ccc(N(Cc2ccc(-c3noc(C(F)(F)F)n3)s2)c2cnccn2)nn1)N1CCC2(COC2)C1 [Example FJ, 6-{2-Oxa-6-azaspiro[3.4]octane-6-carbonyl}-N-(pyrazin-2-yl)-N-({5-[5-(trifluoromethyl)-1,2,4-oxadiazol-3-yl]thiophen-2-yl}methyl)pyridazin-3-amine]
≤ 10000	≤ 10000	≤ 10000	FC(F)(F)c1nc(-c2ccc(CN(c3cnccn3)c3cnc(N4CCOCC4)cn3)s2)no1 [Example BM, 5-(Morpholin-4-yl)-N-(pyrazin-2-yl)-N-({5-[5-(trifluoromethyl)-1,2,4-oxadiazol-3-yl]thiophen-2-yl}methyl)pyrazin-2-amine]
≤ 10000	≤ 500	≤ 500	O=C(c1cnnc(N(Cc2ccc(-c3noc(C(F)(F)F)n3)s2)c2cnccn2)c1)N1CC(C(F)F)C1 [Example GK, 5-[3-(Difluoromethyl)azetidine-1-carbonyl]-N-(pyrazin-2-yl)-N-({5-[5-(trifluoromethyl)-1,2,4-oxadiazol-3-yl]thiophen-2-yl}methyl)pyridazin-3-amine]
≤ 10000	≤ 500	≤ 1000	O=C(c1cnnc(N(Cc2ccc(-c3noc(C(F)(F)F)n3)s2)c2cnccn2)c1)N1CC(O)(C(F)(F)F)C1 [Example GD, 1-{6-[(Pyrazin-2-yl)({5-[5-(trifluoromethyl)-1,2,4-oxadiazol-3-yl]thiophen-2-yl}methyl)amino]pyridazine-4-carbonyl}-3-(trifluoromethyl)azetidin-3-ol]
